Results as given in patent US6515025B2, “Use of ethynyl alanine amino diol compounds to inhibit enzymatic conversion of angiotensinogen to angiotensin I” (Pharmacia Corporation, priority 1991, dated 2003).
Like-named read-outs stand apart in the source and are kept apart here.

Tests used:
[1] = Oral bioavailability studies in dogs (plasma concentration by bioassay); type: in vivo; conditions: dog, plasma
Procedure: The bioavailability in marmosets and dogs was determined by sampling the blood via the femoral vein at various time points after administering the renin inhibitor compounds of the invention in polyethylene glycol 400 at an intragastric dose of 10 mg/kg or at an intravenous dose of 1 mg/kg. Compound concentration in plasma was determined using the bioassay technique described below. The percent bioavailability was calculated by dividing the area under the concentration-vs.-time curve obtained from the intragastric experiment by the area under the concentration-vs.-time curve obtained from the intravenous experiment (adjusting for different doses), and multiplying the result by 100%. The bioavailibility of Example 1 compound is 27% in marmosets and 33% in dogs.
Renin inhibitor plasma concentrations were determined by a bioassay. The plasma samples were extracted with acetonitrile and the extract was evaporated to dryness under nitrogen. Residue was dissolved in 4% bovine serum albumin containing 0.9% NaCl and 5% EDTA. The dissolved residue (0.1 ml) was incubated with a reaction mixture containing human plasma (0.12 ml), 5% phenylmethysulfonylfluoride (1.2 ul), 10% neomycin (2.4 ul), 0.5 M TES buffer (pH 7.4, 24 ul), and 0.6 mU/ml recombinant human renin (1000 U/mg, 50 ul) at 37° C. for 90 minutes. The renin activity was determined by a standard angiotensin I radioimmunoassay (New England Nuclear Corp.). The amount of test compound in the plasma was determined by comparing the extent of inhibition of renin activity with that produced by a known amount of test compound added to plasma and analyzed above.

renin (human plasma) = target: T1, renin (human plasma) (Homo sapiens, UniProt P00797); test: Renin inhibitor species specificity, human plasma renin activity; type: biochemical
T1 construct: the animal plasma is the source of both the renin substrate and the renin enzyme; from tissue
T1 sequence (P00797 67-406): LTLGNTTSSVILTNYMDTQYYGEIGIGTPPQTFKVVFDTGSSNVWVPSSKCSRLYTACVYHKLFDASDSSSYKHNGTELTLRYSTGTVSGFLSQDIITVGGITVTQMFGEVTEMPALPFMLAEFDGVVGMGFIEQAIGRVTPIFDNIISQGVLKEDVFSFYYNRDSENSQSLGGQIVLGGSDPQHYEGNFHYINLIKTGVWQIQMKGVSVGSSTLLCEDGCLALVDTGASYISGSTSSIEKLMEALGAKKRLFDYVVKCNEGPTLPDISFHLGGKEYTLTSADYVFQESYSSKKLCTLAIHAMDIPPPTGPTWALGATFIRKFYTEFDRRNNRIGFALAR
Procedure: Blood was collected in a 10 ml Becton Dickinson vacutainer tube with 0.1 ml of 15% EDTA (K3) solution (15 mg) from normal animals or high renin animals; i.e., those pre-treated with 5 mg/kg of Lasix® intramuscularly 2 times within a 6 hour interval 24 hours prior to bleeding. The blood was then centrifuged at 2500 RPM for 20 minutes and the plasma from the various species respectively pooled, aliquoted and stored in the freezer. The human plasma source was taking a prescription of an angiotensin converting enzyme inhibitor.
The plasma renin activity assay is a modification of the human renin inhibition test in that the animal plasma is the source of both the renin substrate and the renin enzyme. In a total volume of 0.1 ml, 90 mM Tris-acetate buffer, pH 7.5, 12 mM sodium EDTA, 0.012 mg/ml neomycin sulfate, 0.9 mg/ml bovine serum albumin, 1.61 mM phenylmethyl sulfonyl fluoride, 4 mM 8-hydroxyquinoline and 0.09 ml of the animal or human plasmas were incubated for 2 hours at 37° C. in a shaking water bath or at 4° C. in an ice bath in the presence or absence of renin inhibitors. The produced angiotensin I was determined by radioimmunoassay (New England Nuclear kit).
The amount of angiotensin I generated during the 2 hours at 4° C. was usually less than 5% of that activity produced at 37° C.; however, the 4° C. background values were nevertheless subtracted from the 37° C. ones for the 100% activity values. The renin inhibitors were assayed in duplicate using 5 concentrations and the data is expressed as a percent of the 100% total renin activity.

[2] = iv, 1 mg/kg, IV at 1 mg/kg, read-out: Estimated Plasma Concentration, Mean ± SE
[3] = iv, 1 mg/kg, IV at 1 mg/kg, individual animals, read-out: Estimated Plasma Concentration
[4] = oral, 10 mg/kg, IG at 10 mg/kg, read-out: Estimated Plasma Concentration, Mean ± SE
[5] = oral, 10 mg/kg, IG at 10 mg/kg, individual animals, read-out: Estimated Plasma Concentration

SMILES: C#CC[C@H](NC(=O)C(CC(=O)N(C)CCN(C)C)Cc1ccccc1)C(=O)NC(CC1CCCCC1)[C@@H](O)C(O)CC(C)C (relative stereo) [Example 1, N1-[1R*-[[[1S,1R*-(cyclohexylmethyl)-2S*,3R*-dihydroxy-5-methylhexyl]amino]carbonyl]-3-butynyl]-N4-[2-(dimethylamino)ethyl]-N4-methyl-2S*-(phenylmethyl)butanediamide]
- concentration at 15 min [1, 2]: 170 ± 24.1 ng/mL
- concentration at 30 min [1, 3]: 145 ng/mL
- concentration at 30 min [1, 2]: 123 ± 12.1 ng/mL
- concentration at 1 h [1, 3]: 70.4 ng/mL
- concentration at 1 h [1, 2]: 62.7 ± 6.4 ng/mL
- concentration at 2 h [1, 3]: 48.8 ng/mL
- concentration at 2 h [1, 2]: 58.2 ± 6.2 ng/mL
- concentration at 4 h [1, 3]: 18.6 ng/mL
- concentration at 4 h [1, 2]: 21.9 ± 1.6 ng/mL
- concentration at 6 h [1, 3]: 10.1 ng/mL
- concentration at 6 h [1, 2]: 11.3 ± 1.1 ng/mL
- concentration at 8 h [1, 3]: 6.4 ng/mL
- concentration at 8 h [1, 2]: 5.8 ± 0.5 ng/mL
- concentration at 24 h [1, 3]: 2.5 ng/mL
- concentration at 24 h [1, 2]: 1.8 ± 0.4 ng/mL
- concentration at 15 min [1, 4]: 128 ± 77.2 ng/mL
- concentration at 30 min [1, 4]: 564 ± 158 ng/mL
- concentration at 1 h [1, 5]: 678 ng/mL
- concentration at 1 h [1, 4]: 799 ± 60.5 ng/mL
- concentration at 2 h [1, 5]: 599 ng/mL
- concentration at 2 h [1, 4]: 502 ± 75.8 ng/mL
- concentration at 4 h [1, 5]: 123 ng/mL
- concentration at 4 h [1, 4]: 110 ± 20.9 ng/mL
- concentration at 6 h [1, 5]: 66.9 ng/mL
- concentration at 6 h [1, 4]: 62.1 ± 7.7 ng/mL
- concentration at 8 h [1, 5]: 33.5 ng/mL
- concentration at 8 h [1, 4]: 34.8 ± 5.8 ng/mL
- concentration at 24 h [1, 5]: 6.2 ng/mL
- concentration at 24 h [1, 4]: 7.5 ± 0.7 ng/mL
- bioavailability ([1]; oral, dogs, IG 10 mg/kg vs IV 1 mg/kg): 33%
- Vd ([1]; read-out: Vd, Mean ± SE): 9.5 ± 1 L/kg
- half-life ([1]; read-out: t1/2, Mean ± SE (converted)): 282 ± 18 min
- % of Total Renin Activity (renin (human plasma); 1 nM): 90%
- % of Total Renin Activity (renin (human plasma); 4 nM): 50%
- % of Total Renin Activity (renin (human plasma); 16 nM): 10%
